Reference: US10214519B2, “Phosphatidylinositol 3-kinase inhibitors” (Gilead Sciences, Inc., priority 2016, dated 2019)

target: PI3Kβ (Homo sapiens (Human), UniProt P42338); assay: PI3K isoform TR-FRET enzymatic assay (PI3Kβ); format: biochemical; conditions: 2× Km ATP, 30 minutes at 25° C.
Method: The compounds of formula (I) were characterized for their enzymatic activity against the PI3K isoforms. The activities were measured using a time-resolved fluorescence resonance energy transfer (TR-FRET) assay. TR-FRET monitored the formation of 3,4,5-inositol triphosphate molecule that competed with fluorescently labeled PIP3 for binding to the GRP-1 pleckstrin homology domain protein.
Class I PI3K isoforms were expressed and purified as heterodimeric recombinant proteins. All assay reagents and buffers for the TR-FRET assay were purchased from Millipore. […] The compounds were added to the assay solution and incubated for 30 minutes at 25° C. The reactions were terminated with a final concentration of 10 mM EDTA, 10 nM labeled-PIP3, and 35 nM Europium labeled GRP-1 detector protein before reading TR-FRET on an Envision plate reader (Ex: 340 nm; Em: 615/665 nm; 100 μs delay and 500 μs read window).
The results were normalized based on positive (1 μM wortmanin) and negative (DMSO) controls, and the IC50 values for PI3K α, β, δ, and γ were calculated from the fit of the dose-response curves to a four-parameter equation.

Chain of PI3Kβ (P42338 whole entry, the tested form may be a part, canonical isoform): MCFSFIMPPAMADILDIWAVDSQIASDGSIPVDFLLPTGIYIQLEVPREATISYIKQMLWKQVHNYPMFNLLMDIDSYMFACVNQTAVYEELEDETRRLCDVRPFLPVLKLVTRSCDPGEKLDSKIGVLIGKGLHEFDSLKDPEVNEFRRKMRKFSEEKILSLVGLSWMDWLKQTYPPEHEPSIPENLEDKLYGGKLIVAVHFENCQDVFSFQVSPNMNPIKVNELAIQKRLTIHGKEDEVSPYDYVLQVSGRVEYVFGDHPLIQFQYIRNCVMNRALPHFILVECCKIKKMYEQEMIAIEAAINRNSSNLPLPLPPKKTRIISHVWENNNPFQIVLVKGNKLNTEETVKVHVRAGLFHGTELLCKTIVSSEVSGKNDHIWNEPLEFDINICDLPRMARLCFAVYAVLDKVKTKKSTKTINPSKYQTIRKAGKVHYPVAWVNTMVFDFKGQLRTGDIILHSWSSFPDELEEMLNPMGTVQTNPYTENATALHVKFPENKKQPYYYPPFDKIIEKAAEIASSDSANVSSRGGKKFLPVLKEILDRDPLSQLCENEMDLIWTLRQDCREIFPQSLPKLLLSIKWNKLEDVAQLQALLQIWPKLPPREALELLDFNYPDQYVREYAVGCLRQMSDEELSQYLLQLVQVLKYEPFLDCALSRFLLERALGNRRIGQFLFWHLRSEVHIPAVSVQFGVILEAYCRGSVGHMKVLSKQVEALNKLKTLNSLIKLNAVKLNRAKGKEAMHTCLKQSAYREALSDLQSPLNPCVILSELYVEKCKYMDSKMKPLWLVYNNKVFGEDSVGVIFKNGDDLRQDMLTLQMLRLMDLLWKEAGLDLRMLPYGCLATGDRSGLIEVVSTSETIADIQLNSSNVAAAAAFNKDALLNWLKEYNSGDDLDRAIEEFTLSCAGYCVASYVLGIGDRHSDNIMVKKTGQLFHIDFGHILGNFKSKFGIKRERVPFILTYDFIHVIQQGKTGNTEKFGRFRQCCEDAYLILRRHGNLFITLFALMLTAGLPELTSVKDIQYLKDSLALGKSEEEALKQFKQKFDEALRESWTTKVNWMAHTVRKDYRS
Chain of PI3Kβ (P27986 whole entry partner, the tested form may be a part, canonical isoform): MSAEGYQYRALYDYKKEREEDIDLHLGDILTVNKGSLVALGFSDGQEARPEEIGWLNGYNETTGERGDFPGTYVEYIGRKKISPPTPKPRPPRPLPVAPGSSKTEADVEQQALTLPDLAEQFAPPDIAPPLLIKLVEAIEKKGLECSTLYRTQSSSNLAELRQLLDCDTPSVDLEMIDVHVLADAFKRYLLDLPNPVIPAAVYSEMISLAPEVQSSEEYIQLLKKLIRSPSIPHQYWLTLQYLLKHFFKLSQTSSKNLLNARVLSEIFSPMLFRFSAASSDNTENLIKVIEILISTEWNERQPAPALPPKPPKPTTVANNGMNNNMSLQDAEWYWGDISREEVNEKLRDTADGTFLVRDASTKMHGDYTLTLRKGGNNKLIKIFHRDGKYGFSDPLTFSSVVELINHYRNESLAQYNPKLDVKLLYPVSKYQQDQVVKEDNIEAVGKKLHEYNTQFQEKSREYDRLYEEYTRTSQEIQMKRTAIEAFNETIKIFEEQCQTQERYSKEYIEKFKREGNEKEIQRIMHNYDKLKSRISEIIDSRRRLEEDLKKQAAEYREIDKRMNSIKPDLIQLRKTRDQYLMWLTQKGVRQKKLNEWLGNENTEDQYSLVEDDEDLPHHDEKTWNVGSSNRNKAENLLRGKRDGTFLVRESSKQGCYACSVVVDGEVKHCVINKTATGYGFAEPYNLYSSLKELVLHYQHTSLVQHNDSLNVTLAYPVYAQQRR

Row | IC50 [nM] | Compound
1 | 10 | CCc1nc2c(-c3cnc(Cl)[nH]3)cc(N3CCOCC3)cc2n1-c1ccnc2c(Cl)cccc12 [Example 279, 4-[7-(2-chloro-1H-imidazol-5-yl)-3-(8-chloroquinolin-4-yl)-2-ethylbenzimidazol-5-yl]morpholine]
2 | 9 | Cc1nc2c(-c3nnc[nH]3)cc(N3CCOCC3)cc2n1-c1c(-c2nnc[nH]2)cnc2ccccc12 [Example 392, 4-(1-(3-(4H-1,2,4-triazol-3-yl)quinolin-4-yl)-2-methyl-4-(4H-1,2,4-triazol-3-yl)-1H-benzo[d]imidazol-6-yl)morpholine]
3 | 490 | Cc1nc2c(-c3cncnc3)cc(N3CCOCC3)cc2n1-c1ccnc2c(Cl)cccc12 [Example 315, 4-(1-(8-chloroquinolin-4-yl)-2-methyl-4-(pyrimidin-5-yl)-1H-benzo[d]imidazol-6-yl)morpholine]
4 | 19 | Clc1cccc2c(-n3c(C4CC4)nc4c(-c5nnc[nH]5)cc(N5CCOCC5)cc43)ccnc12 [Example 110, 4-[3-(8-chloroquinolin-4-yl)-2-cyclopropyl-7-(4H-1,2,4-triazol-3-yl)benzimidazol-5-yl]morpholine]
5 | 24 | Fc1ccc(F)c2c(-n3c(CC4CC4)nc4c(-c5cnc(Cl)[nH]5)cc(N5CCOCC5)cc43)ccnc12 [Example 302, 4-[7-(2-chloro-1H-imidazol-5-yl)-2-(cyclopropylmethyl)-3-(5,8-difluoroquinolin-4-yl)benzimidazol-5-yl]morpholine]
6 | 16 | Cc1nnc(-c2cc(N3CCOCC3)cc3c2nc(C)n3-c2cc(N3CCNCC3)nc3ccccc23)[nH]1 [Example 169, 4-(2-methyl-4-(5-methyl-4H-1,2,4-triazol-3-yl)-1-(2-(piperazin-1-yl)quinolin-4-yl)-1H-benzo[d]imidazol-6-yl)morpholine]
7 | 770 | Cc1nc2c(-c3ccn(S(C)(=O)=O)c3)cc(N3CCOCC3)cc2n1-c1ccnc2c(Cl)cccc12 [Example 264, 4-[3-(8-chloroquinolin-4-yl)-2-methyl-7-(1-methylsulfonylpyrrol-3-yl)benzimidazol-5-yl]morpholine]
8 | 10 | Clc1cccc2c(-n3c(C4CC4)nc4c(-c5ncco5)cc(N5CCOCC5)cc43)ccnc12 [Example 228, 4-[3-(8-chloroquinolin-4-yl)-2-cyclopropyl-7-(1,3-oxazol-2-yl)benzimidazol-5-yl]morpholine]
9 | 9800 | Cc1nc2c(-c3cnn(C)c3)cc(N3CCOCC3)cc2n1-c1ccnc2c(Cl)cccc12 [Example 313, 4-(1-(8-chloroquinolin-4-yl)-2-methyl-4-(1-methyl-1H-pyrazol-4-yl)-1H-benzo[d]imidazol-6-yl)morpholine]
10 | 71 | CCc1nc2c(-c3cnc(Cl)[nH]3)cc(N3CCOCC3)cc2n1-c1cc(C)nc2c(F)cccc12 [Example 283, 4-[7-(2-chloro-1H-imidazol-5-yl)-2-ethyl-3-(8-fluoro-2-methylquinolin-4-yl)benzimidazol-5-yl]morpholine]
11 | 7000 | Cc1nc2c(-c3ccnn3C)cc(N3CCOCC3)cc2n1-c1ccnc2c(Cl)cccc12 [Example 269, 4-[3-(8-chloroquinolin-4-yl)-2-methyl-7-(2-methylpyrazol-3-yl)benzimidazol-5-yl]morpholine]
12 | 99 | Cc1nc2c(-c3nnc[nH]3)cc(N3CCOCC3)cc2n1-c1cc(C#N)nc2ccccc12 [Example 67, 4-[2-methyl-6-morpholin-4-yl-4-(4H-1,2,4-triazol-3-yl)benzimidazol-1-yl]quinoline-2-carbonitrile]
13 | 44 | Cn1cc(-c2nc3c(-c4nnc[nH]4)cc(N4CCOCC4)cc3n2-c2ccnc3c(Cl)cccc23)cn1 [Example 121, 4-[3-(8-chloroquinolin-4-yl)-2-(1-methylpyrazol-4-yl)-7-(4H-1,2,4-triazol-3-yl)benzimidazol-5-yl]morpholine]
14 | 34 | CCCc1nc2c(-c3cnc(C)[nH]3)cc(N3CCOCC3)cc2n1-c1ccnc2c(Cl)cccc12 [Example 212, 4-[3-(8-chloroquinolin-4-yl)-7-(2-methyl-1H-imidazol-5-yl)-2-propylbenzimidazol-5-yl]morpholine]
15 | 20 | CCc1nc2c(-c3nnc[nH]3)cc(N3CCOCC3)cc2n1-c1c(C)cnc2c(C#N)cccc12 [Example 155, 4-(2-ethyl-6-morpholino-4-(4H-1,2,4-triazol-3-yl)-1H-benzo[d]imidazol-1-yl)-3-methylquinoline-8-carbonitrile]
16 | 20 | Clc1ncc(-c2cc(N3CCOCC3)cc3c2nc(CC2CC2)n3-c2ccnc3c(Cl)cccc23)[nH]1 [Example 301, 4-[7-(2-chloro-1H-imidazol-5-yl)-3-(8-chloroquinolin-4-yl)-2-(cyclopropylmethyl)benzimidazol-5-yl]morpholine]

Row | IC50 [nM] | Compound
17 | 110 | Cc1nnc(-c2cc(N3CCOCC3)cc3c2nc(C)n3-c2ccnc3ccccc23)[nH]1 [Example 19, 4-(2-methyl-4-(5-methyl-4H-1,2,4-triazol-3-yl)-1-(quinolin-4-yl)-1H-benzo[d]imidazol-6-yl)morpholine]
18 | 967 | Cc1nc2c(-c3ccccc3)cc(N3CCOCC3)cc2n1-c1ccnc2c(-c3ccccc3)cccc12 [Example 312, 4-(2-methyl-4-phenyl-1-(8-phenylquinolin-4-yl)-1H-benzo[d]imidazol-6-yl)morpholine]
19 | 7100 | Cc1cnc2c(C#N)cccc2c1-n1c(C)nc2c(-c3nnc[nH]3)cc(N3CCOCC3)cc21 (atropisomer, axis not shown) [Compound 375, 3-methyl-4-(2-methyl-6-morpholino-4-(4H-1,2,4-triazol-3-yl)-1H-benzo[d]imidazol-1-yl)quinoline-8-carbonitrile]
20 | 15 | Cc1nc2c(-c3cnc[nH]3)cc(N3CCOCC3)cc2n1-c1ccnc2c(F)ccc(F)c12 [Example 335, 4-[3-(5,8-difluoroquinolin-4-yl)-7-(1H-imidazol-5-yl)-2-methylbenzimidazol-5-yl]morpholine]
21 | 12 | Cc1nc2c(-c3nnc[nH]3)cc(N3CCOCC3)cc2n1-c1ccnc2c(F)ccc(F)c12 [Example 114, 4-[3-(5,8-difluoroquinolin-4-yl)-2-methyl-7-(4H-1,2,4-triazol-3-yl)benzimidazol-5-yl]morpholine]
22 | 5 | CCCc1nc2c(-c3ncco3)cc(N3CCOCC3)cc2n1-c1ccnc2c(F)ccc(F)c12 (atropisomer, axis not shown) [Compound 357, 4-[3-(5,8-difluoroquinolin-4-yl)-7(1,3-oxazol-2-yl)-2-propylbenzimidazol-5-yl]morpholine]
23 | 21 | CCc1nc2c(-c3nnc(C)[nH]3)cc(N3CCOCC3)cc2n1-c1ccnc2c(Cl)cccc12 [Example 133, 4-[3-(8-chloroquinolin-4-yl)-2-ethyl-7-(5-methyl-4H-1,2,4-triazol-3-yl)benzimidazol-5-yl]morpholine]
24 | 16 | Cc1nc2c(-c3nnc[nH]3)c(F)c(N3CCOCC3)cc2n1-c1ccnc2c(Cl)cccc12 [Example 86, 4-[3-(8-chloroquinolin-4-yl)-6-fluoro-2-methyl-7-(4H-1,2,4-triazol-3-yl)benzimidazol-5-yl]morpholine]
25 | 9 | Cc1nc2c(-c3nnc[nH]3)cc(N3CCOCC3)cc2n1-c1cc(N2CCNCC2)nc2ccccc12 [Example 168, 4-(2-methyl-1-(2-(piperazin-1-yl)quinolin-4-yl)-4-(4H-1,2,4-triazol-3-yl)-1H-benzo[d]imidazol-6-yl)morpholine 2,2,2-trifluoroacetate]
26 | 12 | Cc1nc2c(-c3nnc(Cl)[nH]3)cc(N3CCOCC3)cc2n1-c1ccnc2c(Cl)cccc12 [Example 178, 4-[3-(8-chloroquinolin-4-yl)-7-(5-chloro-4H-1,2,4-triazol-3-yl)-2-methylbenzimidazol-5-yl]morpholine]
27 | 27 | CCc1nc2ccccc2c(-n2c(C)nc3c(-c4nnc[nH]4)cc(N4CCOCC4)cc32)c1C [Example 55, 4-[3-(2-ethyl-3-methylquinolin-4-yl)-2-methyl-7-(4H-1,2,4-triazol-3-yl)benzimidazol-5-yl]morpholine]
28 | 2200 | Cc1nnc(-c2cc(N3CCOCC3)cc3c2nc(C)n3-c2c(F)cnc3ccccc23)[nH]1 [Example 154, 4-(1-(3-fluoroquinolin-4-yl)-2-methyl-4-(5-methyl-4H-1,2,4-triazol-3-yl)-1H-benzo[d]imidazol-6-yl)morpholine]
29 | 13 | CCc1nc2c(-c3cnc(Cl)[nH]3)cc(N3CCOCC3)cc2n1-c1ccnc2c(F)cccc12 [Example 284, 4-[7-(2-chloro-1H-imidazol-5-yl)-2-ethyl-3-(8-fluoroquinolin-4-yl)benzimidazol-5-yl]morpholine]
30 | 100 | Cc1nc2c(-c3nnc(Cl)[nH]3)cc(N3CCOCC3)cc2n1-c1ccnc2c(Cl)c(F)ccc12 [Example 171, 4-(4-(5-chloro-4H-1,2,4-triazol-3-yl)-1-(8-chloro-7-fluoroquinolin-4-yl)-2-methyl-1H-benzo[d]imidazol-6-yl)morpholine]
31 | 26 | Cc1csc(-c2cc(N3CCOCC3)cc3c2nc(C2CC2)n3-c2ccnc3c(Cl)ccc(F)c23)n1 [Example 243, 4-[3-(8-chloro-5-fluoroquinolin-4-yl)-2-cyclopropyl-7-(4-methyl-1,3-thiazol-2-yl)benzimidazol-5-yl]morpholine]

Row | Compound | IC50 [nM]
32 | Cc1nnc(-c2cc(N3CCOCC3)cc3c2nc(C)n3-c2ccnc3c(F)ccc(F)c23)[nH]1 (atropisomer, axis not shown) [Compound 350, (S)-4-(1-(5,8-difluoroquinolin-4-yl)-2-methyl-4-(5-methyl-4H-1,2,4-triazol-3-yl)-1H-benzo[d]imidazol-6-yl)morpholine] | 10
